{"source": "patent US20070280982A1", "about": "“Antimicrobial compositions comprising hop acid alkali salts and uses thereof” (priority 2006, published 2007)", "key": {"B. subtilis": {"system": "B. subtilis", "experiment": "Shelf-life extension (bacteriostatic) assay, broth dilution, FIG. 1 and FIG. 3", "assay_type": "cell-based, Bacillus subtilis", "details": "glycine alone versus combined with beta acid sodium salts", "experimental": "Shelf-life extension assays were performed using the broth dilution method. Final inoculum concentration was […]. Microbial growth was assayed with a spectrophotometer by monitoring the absorption at 600 nm after 2 to 3 days. […] After incubation, colonies were counted."}, "Bacillus subtilis": {"system": "Bacillus subtilis", "details": "cited from earlier work"}}, "data": [{"smiles": "NCC(=O)O", "note": "[Glycine]", "values": [{"measurement": "Effect on bacterial growth, alone or in combination (FIG. 3)", "setting": "B. subtilis", "result": "almost no effect on bacterial growth"}, {"measurement": "Known activity against Bacillus subtilis", "setting": "Bacillus subtilis", "result": "relatively weak activity"}]}]}
